The test system of data set [1] is HIV-2 LTR. Briefly: HIV-2 enhancer CAT reporter assay in transfected U937 cells. The format is cell-based, Human. As for the experimental part:
Cell Culture. Human U937 monocytic cells were maintained in RPMI 1640 medium containing 10% fetal bovine serum (GibcoBRL), penicillin (50 units/ml), streptomycin (50 μg/ml), and L-glutamine (2 mM).
Phosphatase Inhibition. […]
Transfections. 5 μg of CAT reporter construct, pCMV5 PP2Ac, and the empty pCMV5 vector were combined to yield 25 μg total DNA. U937 undergoing logarithmic growth were harvested at 5×10^5 cells/ml and resuspended at 25×10^6 cells/ml in RPMI 1640 media. 10^7 cells (0.4 ml) were aliquoted to 0.4 cm electroporation cuvettes (Invitrogen) and incubated with the appropriate DNA mixture for 5 min at room temperature. The cells were then electroporated using Invitrogen's Electroporator II at a setting of 330 V, 1000 μF, and infinite resistance with an input voltage of approximately 325 V. Following electroporation, the cells from each cotransfection were evenly split ([…]) and placed in separate tissue culture plates in 5 ml of RPMI1640 media+10% FBS. After a period of 12-16 hrs, one group of cells was left untreated while the other received 32 nM TPA for 24 hrs. The cells were then harvested, washed with PBS, and lysed in 0.25 M Tris-HCl (pH 7.5). Protein levels of the lysates were determined by BioRad's colorimetric protein assay (BioRad).
Chloramphenicol Acetyl Transferase (CAT) Assay. For CAT assays, 5-30 μl of cell lysate was combined with 20 μl of 100 mM Tris-HCl (pH 7.5). The final volume was increased to 50 μl with lysis buffer, if necessary, and the mixture incubated for 15 min at 65° C. to inactivate endogenous acetyltransferases. The lysates were then transferred to 7 ml scintillation vials and 200 μl CAT reaction mixture (125 mM Tris-HCl, 1.25 mM chloramphenicol, 0.1 μCi ^3H-acetyl CoA) added. Five ml of Econofluor (Fisher Scientific) scintillation fluid was overlaid and the reaction incubated for 15-90 min before counting. Background and total counts were determined by mixing 200 μl CAT reaction mixture with 5 ml of Econfluor or Scintiverse (Fisher Scientific) respectively. CAT activity was background subtracted and normalized for total amount of protein used.
To test the possibility that PP2A is involved in the activation of the HIV-2 LTR and that PP2A may act on the HIV-2 LTR through the pets site, U937 cells were transfected with an HIV-2 enhancer CAT reporter alone or with pCMV5 PP2Ac, a plasmid encoding the catalytic domain of PP2A. After transfection, cells from each condition were split into an untreated control sample, to assess the baseline effects of PP2A, or a sample that received 32 nM 12-O-tetradecanoyl phorbol-13-acetate (TPA) for 24 hrs. […]
Background: A reporter such as luciferase makes a cellular process visible.

Data set [2] deals with HIV-1. As to conditions: U1 cells; for inhibition of PMA-stimulated HIV-1 replication: RT assay.
Data set [3] has as its system HIV-1 LTR. The following applies: literature reports; cited from earlier work.
Data set [4] relates to U1 cells. Briefly: Cellular viability of U1 cells treated with FST. It counts as cell-based. As for the experimental part: The cellular viability was >100% for 10 μM FST compared to no treatment and 76.3% for 10 μM FST and PMA compared with PMA alone.

For `C=C1[C@@H](O)[C@@H]2O[C@]3(CC[C@H](/C=C/[C@@H](C)[C@@H]4CC(C)=C[C@@]5(O[C@H](C[C@@](C)(O)C(=O)O)CC[C@H]5O)O4)O3)CC[C@H]2O[C@@H]1[C@@H](O)C[C@H](C)[C@H]1O[C@@]2(CCCCO2)CC[C@H]1C` [okadaic acid], the “effect on synergy between PP2Ac and TPA in activating HIV-2 enhancer CAT reporter” value in data set [1] (5 μg pCMV5 PP2Ac plus TPA, OKA 50-400 nM) was “significantly reduced in a dose dependent manner”. Further, the “effect of OKA on CAT activity of TPA-treated cells” value in data set [1] (OKA 50-400 nM pretreatment 30 min prior to TPA, U937 cells) is on record as “decrease in CAT activity”. Moreover, the “maximal increase in CAT reporter activity” value in data set [1] (OKA alone for 18 hrs, maximal activity at 200 nM, U937 cells) is reported as 150 fold. Besides, the “inhibition of PMA-stimulated HIV-1 replication” value in data set [2] (PMA 32 nM) is “inhibit PMA-stimulated HIV-1 replication”. For the same compound, the “concentration dependence of inhibition of replication” value in data set [2] (PMA 32 nM, from 50 nM to 200 nM) is recorded as “inhibited replication in a concentration dependent manner”. Further, the “inhibition of HIV-1 replication in the absence of PMA” value in data set [2] (no PMA) is “no inhibition”. Moreover, in data set [3], the “effect on the HIV-1 LTR” value is given as “activate the HIV-1 LTR”.

`C[C@@](O)(/C=C/[C@H]1CC=CC(=O)O1)[C@@H](C[C@@H](O)\C=C/C=C\C=C\CO)OP(=O)(O)O` [fostreicin]: the “cellular viability compared to no treatment” value in data set [4] (10 μM FST) is recorded as above 100%. In data set [4] (10 μM FST and PMA), the “cellular viability compared with PMA alone” value came out at 76.3%. In data set [4] (treatment with FST), the “effect of treatment on cellular viability” value is “minimally affected”. Moreover, the “reversal of PMA stimulation of HIV-1 replication” value in data set [2] (10 μM, PMA 32 nM) is “totally reversed PMA stimulation of HIV-1 replication”. In addition, the “inhibition of PMA-stimulated HIV-1 replication” value in data set [2] (PMA 32 nM) was “inhibit PMA-stimulated HIV-1 replication”.

On to `CCCCCCCCCCCCCC(=O)O[C@@H]1[C@@H](C)[C@@]2(O)[C@@H](C=C(CO)C[C@]3(O)C(=O)C(C)=C[C@@H]23)[C@@H]2C(C)(C)[C@]12OC(C)=O` [TPA, 12-O-tetradecanoyl phorbol-13-acetate], for which the “increase in CAT activity above baseline” value in data set [1] (32 nM TPA, absence of ectopic PP2Ac, U937 cells, HIV-2 CAT reporter) came out at 148 fold.

The record behind these values is patent publication US20020137704A1, “Methods of inhibiting host-cell mediated viral replication” (priority 2000, published 2002).
